From PubChem BioAssay AID1259407 (Chemical Carcinogenesis Research Information System (CCRIS), 2018)
Calls of active or inactive are those of the source. No rule for the calls is given here.

Tested on: CCRIS mutagenicity, Ames/micronucleus/aberration tests
Assay: CCRIS mutagenicity studies

O=C(NCCCl)Sc1ncnc2nc[nH]c12 was tested, and the mutagenic call (Test System: AMES SALMONELLA TYPHIMURIUM, Strain/Indicator: TA97, Metabolic Activation: NONE, Method: STANDARD PLATE) was “inactive; negative”, the mutagenic call (Test System: AMES SALMONELLA TYPHIMURIUM, Strain/Indicator: TA97, Metabolic Activation: RAT, LIVER, S-9, PHENOBARBITAL AND ALPHA-NAPHTHOFLAVONE, Method: STANDARD PLATE) was “inactive; negative” and the mutagenic call (Test System: AMES SALMONELLA TYPHIMURIUM, Strain/Indicator: TA98, Metabolic Activation: NONE, Method: STANDARD PLATE) was “inactive; negative”. For the same compound, the mutagenic call (Test System: AMES SALMONELLA TYPHIMURIUM, Strain/Indicator: TA98, Metabolic Activation: RAT, LIVER, S-9, PHENOBARBITAL AND ALPHA-NAPHTHOFLAVONE, Method: STANDARD PLATE) was “inactive; negative”, the mutagenic call (Test System: AMES SALMONELLA TYPHIMURIUM, Strain/Indicator: TA100, Metabolic Activation: NONE, Method: STANDARD PLATE) was “inactive; negative” and the mutagenic call (Test System: AMES SALMONELLA TYPHIMURIUM, Strain/Indicator: TA100, Metabolic Activation: RAT, LIVER, S-9, PHENOBARBITAL AND ALPHA-NAPHTHOFLAVONE, Method: STANDARD PLATE) was “inactive; negative”. The mutagenic call (Test System: AMES SALMONELLA TYPHIMURIUM, Strain/Indicator: TA1535, Metabolic Activation: NONE, Method: STANDARD PLATE) was “active; positive” and the mutagenic call (Test System: AMES SALMONELLA TYPHIMURIUM, Strain/Indicator: TA1535, Metabolic Activation: RAT, LIVER, S-9, PHENOBARBITAL AND ALPHA-NAPHTHOFLAVONE, Method: STANDARD PLATE) was “active; positive”.

In the case of O=C(N=c1sn(C(=O)c2ccc([N+](=O)[O-])cc2)c2ccc(Cl)cc12)c1ccc([N+](=O)[O-])cc1, the mutagenic call (Test System: AMES SALMONELLA TYPHIMURIUM, Strain/Indicator: TA100, Metabolic Activation: S-9, Method: STANDARD PLATE) is reported as “active; positive”.

For Nc1nc(=O)n([C@@H]2O[C@H](CO)[C@@H](O)[C@H]2O)cc1O, the mutagenic call (Test System: AMES SALMONELLA TYPHIMURIUM, Strain/Indicator: TA100, Metabolic Activation: NONE, Method: PREINCUBATION) was “inactive; negative”.

CC(=O)N(O)c1ccc(O)cc1 was tested, and the mutagenic call (End Point: IN VITRO MICRONUCLEUS, Test System: RAT KIDNEY FIBROBLAST NRK-49F, Metabolic Activation: NONE) was “active; positive”.
